Structures can show the parent of a compound that is named as a salt.

Results on 20 compounds are retold here after patent US10144732B2 (BIOGEN MA INC., priority 2014, dated 2018).

For one experiment, the target named is T1, Human ATX protein (Homo sapiens, UniProt Q13822).
T1 construct: made in house
As to the kind of experiment: ATX biochemical assay (FRET, FS-3 substrate). Conditions: FRET assay, FS-3 2 μM, ATX 1.0 μg/mL, 30 minutes preincubation, 2 hours reaction at room temperature; read-out: IC50. The text has this: ATX (Autotaxin) is a 125 KDa glycoprotein with lysophospholipase D (LPLD) activity that generates the bioactive lipid lysophosphatidic acid (LPA) from lysophosphatidylcholine (LPC). The ATX biochemical assay utilizes a FRET (fluorescence resonance energy transfer) technology platform. The fluorescence signal of FRET substrate FS-3 is quenched due to intra-molecular FRET of a fluorophore to a non-fluorescing quencher (Ferguson, C. G., et al., Org Lett. 2006 May 11; 8(10): 2023-2026, which is incorporated by reference in its entirety). ATX catalyzes the hydrolysis of the substrate which separates the dabsyl quencher from the fluorescein reporter, which becomes fluorescent. The reaction is monitored by a SpectraMax M5 (Molecular Devices, Sunnyvale, Calif.) with at excitation wavelength 485 nm and emission wavelength […].
Fatty acid free-BSA (Sigma A8806): 10 mg/mL in H2O, stored at 4° C.
2×ATX assay buffer: 100 mM Tris, 280 mM NaCl, 10 mM KCl, 2 mM CaCl2, 2 mM MgCl2, pH 7.4.
Human ATX protein: expressed and purified in house. Stored at −80° C.
Substrate FS-3 (Echelon, L-2000): 100 μg in 77.74 μL H2O (1 mM stock), stored at −20° C.
384-well flat bottom plates—Corning #3575.
Compound dilution—All compounds were provided at 10 mM in 100% DMSO. In the first well, 2 μL of 10 mM compound was added to 78 μL of DMSO (1:40 dilution). In subsequent wells 3-fold dilution (total 10 dilutions) were performed.
1×ATX assay buffer was made up with a final concentration of 1 mg/mL fatty acid free-BSA using 2×ATX assay buffer, 10 mg/ml fatty acid free-BSA and ddH2O.
[…]. The final concentration of ATX in the reaction as 1.0 μg/mL.
2 μL per well of compounds was transferred to provide the desired concentration. The plate was centrifuged, then incubated at room temperature for 30 minutes on the shaker.
FS-3 was diluted with 1×ATX assay buffer to a concentration of FS-3 of 10 μM (5×). Then, 10 μL was added per well to the assay plate. The final concentration of FS-3 in the reaction was 2 μM. The plate was centrifuged. The plate was kept shaking at room temperature for 2 hours. Because FS-3 substrate is light sensitive, plates were kept covered and protected from light.
Fluorescence was measured using SpectraMax M5 (excitation at 485 nm/emission at 538 nm, top read).
For `CC(C)(C)OC(=O)N1CCC(CC(=O)N2CCc3c(C(F)(F)F)nn(Cc4ccc(Cl)cc4F)c3C2)CC1(C)C` (centres unmarked) [Example 8-6, tert-Butyl 4-(2-(1-(4-chloro-2-fluorobenzyl)-3-(trifluoromethyl)-4,5-dihydro-1H-pyrazolo[3,4-c]pyridin-6(7H)-yl)-2-oxoethyl)-2,2-dimethylpiperidine-1-carboxylate], the concentration for half-maximal inhibition (IC50) is at most 100 nM. On the same count and under the same terms, in the case of `O=C(O)C1CCC(CC(=O)N2CCc3c(C(F)(F)F)nn(Cc4cccc(F)c4)c3C2)CC1` (mixture of isomers) [Example 6-1, 4-(2-(1-(3-Fluorobenzyl)-3-(trifluoromethyl)-4,5-dihydro-1H-pyrazolo[3,4-c]pyridin-6(7H)-yl)-2-oxoethyl)cyclohexanecarboxylic acid] it was at most 100 nM; in that of `O=C(C[C@H]1CC[C@H](C(=O)O)CC1)N1CCc2c(C3CC3)nn(Cc3ccc(F)cc3)c2C1` [Example 5-38, trans-4-(2-(3-Cyclopropyl-1-(4-fluorobenzyl)-4,5-dihydro-1H-pyrazolo[3,4-c]pyridin-6(7H)-yl)-2-oxoethyl)cyclohexanecarboxylic acid], at most 100 nM; in that of `CCC1CC(CC(=O)N2CCc3c(C(F)(F)F)nn(Cc4ccc(F)cc4)c3C2)CCN1C` (centres unmarked) [Example 10-7, 2-(2-Ethyl-1-methylpiperidin-4-yl)-1-(1-(4-fluorobenzyl)-3-(trifluoromethyl)-4,5-dihydro-1H-pyrazolo[3,4-c]pyridin-6(7H)-yl)ethanone TFA salt], at most 100 nM. Still for that read-out and setting: the same measure for `O=C(CC1CCOCC1)N1CCc2c(C(F)(F)F)nn(Cc3ccc(Cl)cc3F)c2C1` [Example 1-29, 1-(1-(4-Chloro-2-fluorobenzyl)-3-(trifluoromethyl)-4,5-dihydro-1H-pyrazolo[3,4-c]pyridin-6(7H)-yl)-2-(tetrahydro-2H-pyran-4-yl)ethanone]: at most 100 nM. In the case of `O=C(C[C@H]1CC[C@H](N2CC(F)(F)C2)CC1)N1CCc2c(C(F)(F)F)nn(Cc3ccc(F)cc3)c2C1` [Example 22-8, 2-(trans-4-(3,3-difluoroazetidin-1-yl)cyclohexyl)-1-(1-(4-fluorobenzyl)-3-(trifluoromethyl)-4,5-dihydro-1H-pyrazolo[3,4-c]pyridin-6(7H)-yl)ethanone TFA salt], the IC50 was at most 100 nM. On to `CC(C)N1CC(CC(=O)N2CCc3c(C(F)(F)F)nn(Cc4ccc(Cl)cc4F)c3C2)C[C@H]1C(=O)O` (stereo partly drawn) [Example 10-12, (2S)-4-(2-(1-(4-Chloro-2-fluorobenzyl)-3-(trifluoromethyl)-4,5-dihydro-1H-pyrazolo[3,4-c]pyridin-6(7H)-yl)-2-oxoethyl)-1-isopropylpyrrolidine-2-carboxylic acid TFA salt], for which the IC50 was at most 100 nM. Same read-out and setting: the same measure for `O=C(NC12CCC(C(=O)O)(CC1)CC2)N1CCc2c(C(F)(F)F)nn(Cc3ccc(Cl)cc3F)c2C1` [Example 5-8, 4-(1-(4-Chloro-2-fluorobenzyl)-3-(trifluoromethyl)-4,5,6,7-tetrahydro-1H-pyrazolo[3,4-c]pyridine-6-carboxamido)bicyclo[2.2.2]octane-I-carboxylic acid]: at most 100 nM; for `O=C(CC1CC(N2CC(F)(F)C2)C1)N1CCc2c(C(F)(F)F)nn(Cc3ccc(F)cc3)c2C1` (centres unmarked) [Example 22-2, TFA salt]: at most 100 nM.

With `O=C(O[C@H]1CC[C@@H](C(=O)O)CC1)N1CCc2c(C(F)(F)F)nn(Cc3ccc(Cl)cc3F)c2C1` [Example 7-9, cis-4-((1-(4-Chloro-2-fluorobenzyl)-3-(trifluoromethyl)-4,5,6,7-tetrahydro-1H-pyrazolo[3,4-c]pyridine-6-carbonyl)oxy)cyclohexanecarboxylic acid], the IC50 was at most 100 nM.

Consider `CCOC(=O)[C@H]1CC[C@H](CC(=O)N2CCc3c(C(F)(F)F)nn(Cc4ccc(OC)cc4)c3C2)CC1` [Example 1-26, trans-Ethyl 4-(2-(1-(4-methoxylbenzyl)-3-(trifluoromethyl)-4,5-dihydro-1H-pyrazolo[3,4-c]pyridin-6(7H)-yl)-2-oxoethyl)cyclohexanecarboxylate], for which the IC50 is at most 100 nM. On the same count and under the same terms, in the case of `NC12CCC(C(=O)N3CCc4c(C(F)(F)F)nn(Cc5ccc(F)cc5)c4C3)(CC1)CC2` [Example 9-9, (4-Aminobicyclo[2.2.2]octan-1-yl)(1-(4-fluorobenzyl)-3-(trifluoromethyl)-4,5-dihydro-1H-pyrazolo[3,4-c]pyridin-6(7H)-yl)methanone TFA salt] it was 100 to 250 nM.

In the case of `O=C(CC1C2CC3CC1CC(C(=O)O)(C3)C2)N1CCc2c(C(F)(F)F)nn(Cc3ccc(Cl)cc3F)c2C1` (centres unmarked) [Example 5-54, 4-(2-(1-(4-Chloro-2-fluorobenzyl)-3-(trifluoromethyl)-4,5-dihydro-1H-pyrazolo[3,4-c]pyridin-6(7H)-yl)-2-oxoethyl) adamantancarboxylic acid], the concentration for half-maximal inhibition (IC50) was at most 100 nM. On to `O=C(O)CCN1CCC(C(=O)N2CCc3c(C(F)(F)F)nn(Cc4ccc(Cl)cc4F)c3C2)C1` (centres unmarked) [Example 15-3, 3-(3-(1-(4-chloro-2-fluorobenzyl)-3-(trifluoromethyl)-4,5,6,7-tetrahydro-1H-pyrazolo[3,4-c]pyridine-6-carbonyl)pyrrolidin-1-yl)propanoic acid], for which the 50% inhibitory concentration (IC50) was above 10000 nM.

Take `O=C(CC12CCC(C(=O)O)(CC1)CC2)N1CCc2c(C(F)(F)F)nn(Cc3ccc(Cl)cc3F)c2C1` [Example 5-12, 4-(2-(1-(4-Chloro-2-fluorobenzyl)-3-(trifluoromethyl)-4,5-dihydro-1H-pyrazolo[3,4-c]pyridin-6(7H)-yl)-2-oxoethyl)bicyclo[2.2.2]octane-1-carboxylic acid]: the IC50 is at most 100 nM. The same measure, in the same setting: in the case of `CC(C)(C)OC(=O)N1CC(CC(=O)N2CCc3c(C(F)(F)F)nn(Cc4ccc(Cl)cc4F)c3C2)C[C@@H]1C(=O)O` (stereo partly drawn) [Example 5-56, (2R)-1-(tert-Butoxycarbonyl)-4-(2-(1-(4-chloro-2-fluorobenzyl)-3-(trifluoromethyl)-4,5-dihydro-1H-pyrazolo[3,4-c]pyridin-6(7H)-yl)-2-oxoethyl)pyrrolidine-2-carboxylic acid] it was at most 100 nM; in that of `O=C(CC1CCCCC1)N1CCc2c(C(F)(F)F)nn(Cc3ccc(Cl)cc3F)c2C1` [Example 1-5, 1-(1-(4-Chloro-2-fluorobenzyl)-3-(trifluoromethyl)-4,5-dihydro-1H-pyrazolo[3,4-c]pyridin-6(7H)-yl)-2-cyclohexylethanone], at most 100 nM; in that of `O=C(O)C12CCC(C(=O)N3CCc4c(C(F)(F)F)nn(Cc5ccc(Cl)cc5F)c4C3)(CC1)C2` [Example 5-51], at most 100 nM.

On to `O=C(O)C1CN(CC(=O)N2CCc3c(C(F)(F)F)nn(Cc4ccc(Cl)cc4F)c3C2)C1` [Example 13-17, 1-(2-(1-(4-Chloro-2-fluorobenzyl)-3-(trifluoromethyl)-4,5-dihydro-1H-pyrazolo[3,4-c]pyridin-6(7H)-yl)-2-oxoethyl)azetidine-3-carboxylic acid TFA salt], for which the IC50 was at most 100 nM.

Staying with this experiment, now noted: IC50, FRET assay, FS-3 2 μM, ATX 1.0 μg/mL, 30 minutes preincubation, 2 hours reaction at room temperature.
As to `O=C(O)C1CC2COCC(C1)N2CC(=O)N1CCc2c(C(F)(F)F)nn(Cc3ccc(F)cc3)c2C1` (centres unmarked) [Example 13-26, 9-(2-(1-(4-Fluorobenzyl)-3-(trifluoromethyl)-4,5-dihydro-1H-pyrazolo[3,4-c]pyridin-6(7H)-yl)-2-oxoethyl)-3-oxa-9-azabicyclo[3.3.1]nonane-7-carboxylic acid TFA salt], the IC50 was at most 100 nM.

Usually IC50 stands for the concentration that gives 50% inhibition.
